From article PMC9782626, “Copper(II) Complexes of 5–Fluoro–Salicylaldehyde: Synthesis, Characterization, Antioxidant Properties, Interaction with DNA and Serum Albumins” (Molecules, 2022)
Read-outs that look alike come from different tables or passages of the source.

Tests used:
[1] = Reduction of hydrogen peroxide; assay type: biochemical; settings: compound 0.1 mM, 10 min, pH 7.4
Source text: (§1) For the above reasons, the antioxidant ability of 5–F–saloH and Cu(II) complexes 1–5 has been evaluated via their scavenging activity towards DPPH and ABTS radicals, as well as the ability to reduce H2O2, and in comparison with that of well-known antioxidant agents such as nordihydroguaiaretic acid (NDGA), butylated hydroxytoluene (ΒHΤ), 6–hydroxy–2,5,7,8–tetramethylchromane–2–carboxylic acid (trolox) and L–ascorbic acid (these are the most commonly used standard reference antioxidant agents). The DPPH-radical assay was developed in the 1950s and this method has been used to assess the antioxidant capacity of several metal complexes. The DPPH–scavenging ability of compounds has often been related to their ability to prevent ageing, cancer and inflammation. The ability of a compound to scavenge the cationic ABTS radicals (ABTS^+●) has been considered a measure of its total antioxidant activity. Further, hydrogen peroxide has the ability to penetrate biological membranes and, although it is not very reactive itself, it can sometimes be toxic since it may give rise to hydroxyl radicals in cells. For this reason, the removal of H2O2 is very important for the protection of living systems. When a compound is incubated with H2O2 using a peroxidase assay system, the loss of H2O2 can be measured.
(§2) S1 Antioxidant activity assay
(§3) The antioxidant activity of the compounds was evaluated via their ability to scavenge in vitro free radicals such as DPPH and ABTS and to reduce H 2O2. All the experiments were carried out at least in triplicate and the standard deviation of absorbance was less than 10% of the mean.
S1.1 Determination of the reducing activity of the radical DPPH […]
S1.3 Reduction of hydrogen peroxide
The ability of the com pounds to reduce hydrogen peroxide (H2O2) was est imated according to the method descr ibed in the literature [S2]. The reaction mixture contained 20 μL of each of the tested compounds (0.1 mM) and 5 μL H2O 2 solution (40 mM) in phosphate buffer (50 mM, pH = 7.4). The absorbance was measure d at 230 nm after 10 min.
The antioxidant activity (reduction of hydrogen peroxide) of the compounds wa s […]
expressed as the percentage decrease of t he init ial H 2O2 solution (H 2O2%). L-ascor b ic ac id (or vitamin C) was use d as a standard. […]
[DNA] = [DNA] + 1 (eq. S1) […]
where [DNA] is the concentration of DNA in base pa irs, εA = Aobsd/[compound ], εf = the extinction coefficient for the free compound and ε b = the extinction coefficient for the compound in the fully bound form. Kb is given by the ratio of slope to the y intercept in plots [DNA]/(εA-εf) versus[DNA].
S2.2CT DNA -binding studie s by viscosity measurements
The interaction of compounds with DNA has been evaluated via the study of the CT DNA viscosity ([DNA] = 0.1 mΜ) in a buffer solution (150 mM NaCl and 15 mM trisodium citrate at pH 7.0) in the presence of increasing amount of complexes (up to the value of r = 0.36). The obtained data are presented as (η/η 0)1/3 versus r, where η is the viscosity of DNA in the presence of the compound, and η0 is the viscosity of DNA alone in buffer solution.
S2.3 EB -displa cement studie s
The competition of the complexes with EB was investigated by fluorescence emission spectroscopy in order to examine whether the compounds can displace EB from its DNA-EB conjugate. The CT DNA-EB complex was formed by pre-treating 20 μM EB and 26 μM CT DNA in buffer (150 mM NaCl and 15 mM trisodium citrate at pH = 7.0).
The possible displacement of EB by the compounds and su bseq uently t he ir intercalating effect was studied by the stepwise addition of a certain amount of the solution of each

[2] = ABTS radical cation scavenging assay; assay type: biochemical; settings: compound 0.1 mM, 1 min
Source text: as §1, §2
The antioxidant activity of the compounds was evaluated via their ability to scavenge in vitro free radicals such as DPPH and ABTS and to reduce H 2O2. All the experiments were carried out at least in triplicate and the standard deviation of absorbance was less than 10% of the mean. […]
S1.2 Assay of radical cation ABTS-scavengin g activity
The ABTS assay was performed to determine the activity of the compounds to scavenge the radical cation ABTS. Initially, a water solution of ABTS was prepared (2 mM). ABTS radical cation (ABTS+·) was produced by the reaction of ABTS stock solution with potassium persulfate (0.17 mM) and the mixture was stored in the dark at room temperature for 12-16 h before its use. The ABTS was oxidized incompletely because the stoichiometric reaction ratio of ABTS and potassium persulfate is 1:0.5. The absorbance became maximal and stable only after more than 6 h of reaction although the oxidation of the ABTS started immediately. The radical was stable in this form for more than 2 days when allowed to stand in the dark at room temperature. Afterwards, the ABTS+· solution was diluted in ethanol to an absorbance of 0.70 at 734 nm and 10 μL of diluted compounds or standards (0.1 mM) in DMSO were added. The absorbance was recorded out exactly 1 min after init ial m ix in g [S 1]. The ABTS radical scavenging act ivit y was expressed as the percentage inhibition of the absorbance of the initial ABTS solution (ABTS%). Trolox was used as an appropriate standard. […]

[3] = DPPH radical scavenging assay; assay type: biochemical; settings: compound 0.1 mM
Source text: as §1, §2, §3
S1.1 Determination of the reducing activity of the radical DPPH
To an ethanolic solution of DPPH (0.1 mM) an equal volume solution of the compounds (0.1 mM) in ethanol was added. Absolute ethanol was also used as control solution. The absorbance at 517 nm was recorded at room temperature after 30 and 60 min, in order to examine the possible existence of a potential time-dependence of the DPPH radical scavenging act iv ity [S 1]. The DPPH -scavenging activity of the compounds was expressed as the percentage reduction of the absorbance values of the initial DPPH solution ( DPPH%). N DGA and BHT were used as reference comp ounds. […]

[4] = set-up: method as in PMID 35890184; settings: cited from earlier work
[5] = set-up: method as in PMID 35890184; settings: cited from earlier work; remark: listed apart in the source
[6] = set-up: method as in PMID 35890184; settings: cited from earlier work; remark: listed apart in the source
CT DNA = settings: cited from earlier work
[7] = test system: EB–DNA conjugate (CT DNA); set-up: method as in PMID 35890184; settings: cited from earlier work
[8] = biological target: T1, bovine serum albumin (BSA) (Bos taurus, UniProt P02769); set-up: method as in PMID 35890184; settings: cited from earlier work
T1 construct: purchased Sigma–Aldrich Co

[9] = biological target: T2, human serum albumin (HSA) (Homo sapiens, UniProt P02768); set-up: method as in PMID 35890184; settings: cited from earlier work
T2 construct: purchased Sigma–Aldrich Co
T2 sequence (P02768 25-609): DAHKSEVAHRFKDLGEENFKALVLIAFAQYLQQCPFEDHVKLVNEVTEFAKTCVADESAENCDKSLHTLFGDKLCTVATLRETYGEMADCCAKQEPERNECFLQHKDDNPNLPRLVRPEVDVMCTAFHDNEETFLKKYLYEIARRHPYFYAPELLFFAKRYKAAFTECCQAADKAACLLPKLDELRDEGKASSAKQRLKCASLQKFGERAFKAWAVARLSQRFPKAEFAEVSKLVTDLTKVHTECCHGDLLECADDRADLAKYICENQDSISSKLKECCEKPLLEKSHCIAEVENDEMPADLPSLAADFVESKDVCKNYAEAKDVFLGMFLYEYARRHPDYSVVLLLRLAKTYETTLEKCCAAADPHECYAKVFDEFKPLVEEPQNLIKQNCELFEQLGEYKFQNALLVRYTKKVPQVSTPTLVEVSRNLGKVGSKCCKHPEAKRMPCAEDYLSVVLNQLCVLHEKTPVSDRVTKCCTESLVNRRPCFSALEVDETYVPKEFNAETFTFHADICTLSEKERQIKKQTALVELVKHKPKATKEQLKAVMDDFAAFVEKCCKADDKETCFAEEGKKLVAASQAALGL

T1 sequence (P02769 25-607): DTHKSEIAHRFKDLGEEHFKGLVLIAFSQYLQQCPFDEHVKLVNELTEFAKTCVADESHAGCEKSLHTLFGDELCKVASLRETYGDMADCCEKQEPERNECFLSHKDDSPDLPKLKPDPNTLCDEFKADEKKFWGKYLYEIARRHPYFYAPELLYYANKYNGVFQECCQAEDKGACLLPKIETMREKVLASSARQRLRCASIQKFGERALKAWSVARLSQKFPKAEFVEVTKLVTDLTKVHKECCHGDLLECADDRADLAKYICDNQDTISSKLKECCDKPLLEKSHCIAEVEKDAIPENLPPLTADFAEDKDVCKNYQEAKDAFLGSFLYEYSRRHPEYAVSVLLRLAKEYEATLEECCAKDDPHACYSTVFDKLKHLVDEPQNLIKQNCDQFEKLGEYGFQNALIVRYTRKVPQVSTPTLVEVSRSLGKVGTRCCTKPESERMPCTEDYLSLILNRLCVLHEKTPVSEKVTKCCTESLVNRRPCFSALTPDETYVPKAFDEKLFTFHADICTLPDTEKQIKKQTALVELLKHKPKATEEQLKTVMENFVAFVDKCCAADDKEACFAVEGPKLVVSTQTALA

O=C1O[C@H]([C@@H](O)CO)C(O)=C1O [L–ascorbic acid, reference compound]
H2O2%, H2O2–reducing activity [1]: 60.80 ± 0.20%

Cc1c(C)c2c(c(C)c1O)CCC(C)(C(=O)O)O2 (stereo not drawn) [Trolox, 6–hydroxy–2,5,7,8–tetramethylchromane–2–carboxylic acid, reference compound]
ABTS%, % ABTS–scavenging activity [2]: 98.10 ± 0.48%

CC(Cc1ccc(O)c(O)c1)C(C)Cc1ccc(O)c(O)c1 (stereo not drawn) [NDGA, nordihydroguaiaretic acid, reference compound]
DPPH% (30 min), % DPPH–scavenging ability [3]: 87.08 ± 0.12% | DPPH% (60 min), % DPPH–scavenging ability [3]: 87.47 ± 0.12%

Cc1cc(C(C)(C)C)c(O)c(C(C)(C)C)c1 [BHT, butylated hydroxytoluene, reference compound]
DPPH% (30 min), % DPPH–scavenging ability [3]: 61.30 ± 1.16% | DPPH% (60 min), % DPPH–scavenging ability [3]: 79.78 ± 1.12%

O=Cc1cc(F)ccc1O [5–F–saloH, 5–fluoro–salicylaldehyde]
DPPH% (30 min), % DPPH–scavenging ability ([4]; 30 min): 3.96 ± 1.16% | DPPH% (60 min), % DPPH–scavenging ability ([4]; 60 min): 5.56 ± 1.06% | ABTS%, % ABTS–scavenging activity [5]: 19.57 ± 0.58% | H2O2%, H2O2–reducing activity [6]: 71.84 ± 0.95% | ΔA/Aο, percentage of hyper-/hypo-chromism upon addition of CT DNA (CT DNA; band at 334 nm): −30% | ΔA/Aο, percentage of hyper-/hypo-chromism upon addition of CT DNA (CT DNA; band at 421 nm): > +50% | EB–DNA quenching constant kq [7]: 1.73 (±0.05) × 10^12 M^−1 s^−1 | Stern–Volmer constant Ksv (EB–DNA) [7]: 3.79 (±0.11) × 10^4 M^−1 | ΔΙ/Ιο, percentage of EB–DNA fluorescence quenching [7]: 51.3% | EB–DNA relative fluorescence emission intensity I/Io remaining (% of initial) ([7]; λemission = 592 nm, final value): 48.7% | BSA-binding constant K [8]: 4.31 (±0.31) × 10^4 M^−1 | BSA-quenching constant kq [8]: 1.98 (±0.08) × 10^12 M^−1 s^−1 | ΔΙ/Ιο, quenching of the BSA fluorescence [8]: 25.7% | % relative BSA fluorescence emission intensity I/Io remaining (% of initial) ([8]; final value): 74.3% | HSA-binding constant K [9]: 4.65 (±0.35) × 10^4 M^−1 | HSA-quenching constant kq [9]: 1.96 (±0.07) × 10^12 M^−1 s^−1 | ΔΙ/Ιο, quenching of the HSA fluorescence [9]: 25.7% | % relative HSA fluorescence emission intensity I/Io remaining (% of initial) ([9]; final value): 74.3%
